Key:
AsPC-1 cells = test: AsPC-1 cell proliferation assay (CellTiter Glo); assay type: cell-based; conditions: 6 days
Procedure, shortened: (§1)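 Proliferation IC50 comes from CellTiter Glo luminescence after 6 days' exposure of AsPC-1 (3,500 cells/well) to 1:3 dilutions from […] to 1.5 nM. KRAS G12D DC50 derives from in-cell immunofluorescence normalised to β-actin after 24 h treatment of near-confluent AsPC-1 cells over the same range.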

KRAS (G12D) = molecular target: T1, KRAS (G12D) (Homo sapiens, UniProt P01116, G12D); test: KRAS (G12D) cellular degradation assay in AsPC-1 cells; assay type: cell-based; conditions: 24 hours, antibody fluorescence (Odyssey CLX), DC50 half-maximal degradation concentration
T1 construct: in-cell western with KRAS G12D antibody after 24 h
T1 sequence (P01116 1-188 isoform P01116-2 G12D): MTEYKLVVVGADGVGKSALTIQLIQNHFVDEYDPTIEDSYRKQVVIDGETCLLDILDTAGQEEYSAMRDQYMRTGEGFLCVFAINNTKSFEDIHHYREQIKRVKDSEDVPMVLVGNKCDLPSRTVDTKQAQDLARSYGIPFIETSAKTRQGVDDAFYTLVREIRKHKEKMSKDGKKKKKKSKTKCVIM
Procedure, shortened: as §1

SMILES | IC50 (AsPC-1 cells; Homo sapiens, ASPC1, 144 h) | DC50 (KRAS (G12D)) | IC50 (AsPC-1 cells)
CO[C@H]1C[C@H](Oc2nc(N(C)[C@H]3CCNC3)c3cc(C4CC4)c(-c4c(C)c(F)cc5[nH]ncc45)c(OCc4ccc(-c5cn([C@H](C(=O)N6C[C@H](O)C[C@H]6C(=O)N[C@H](c6ccc(-c7scnc7C)cc6)[C@H](C)O)C(C)C)nn5)cc4)c3n2)C1 [Example 171, (2S,4R)-1-((2S)-2-(4-(4-(((6-cyclopropyl-7-(6-fluoro-5-methyl-1H-indazol-4-yl)-2-((1r,3S)-3-methoxycyclobutoxy)-4-(methyl((S)-pyrrolidin-3-yl)amino)quinazolin-8-yl)oxy)methyl)phenyl)-1H-1,2,3-triazol-1-yl)-3-methylbutanoyl)-4-hydroxy-N-((1R,2S)-2-hydroxy-1-(4-(4-methylthiazol-5-yl)phenyl)propyl)pyrrolidine-2-carboxamide] | < 10 nM | < 10 nM | –
CO[C@@H](C)COc1nc(N2C[C@@H]3C[C@H]2CN3)c2cc(C3CC3)c(-c3c(C)c(F)cc4[nH]ncc34)c(OCc3ccc(-c4cn([C@H](C(=O)N5C[C@H](O)C[C@H]5C(=O)N[C@H](C#Cc5cc(C)cc6[nH]ncc56)CO)C(C)C)nn4)cc3)c2n1 [Example 188, (2S,4R)-1-((2S)-2-(4-(4-(((4-((1S,4S)-2,5-diazabicyclo[2.2.1]heptan-2-yl)-6-cyclopropyl-7-(6-fluoro-5-methyl-1H-indazol-4-yl)-2-((S)-2-methoxypropoxy)quinazolin-8-yl)oxy)methyl)phenyl)-1H-1,2,3-triazol-1-yl)-3-methylbutanoyl)-4-hydroxy-N—((R)-1-hydroxy-4-(6-methyl-1H-indazol-4-yl)but-3-yn-2-yl)pyrrolidine-2-carboxamide] | 10 to 100 nM | 10 to 100 nM | –
CCn1nccc1-c1ccc([C@H](CO)NC(=O)[C@@H]2C[C@@H](O)CN2C(=O)[C@H](C(C)C)n2cc(-c3ccc(COc4c(-c5c(C)c(F)cc6[nH]ncc56)c(C5CC5)cc5c(N6C[C@@H]7C[C@H]6CN7)nc(OC[C@H](C)OC)nc45)cc3OC)nn2)cc1 [Example 45, (2S,4R)-1-((2S)-2-(4-(4-(((4-((1S,4S)-2,5-diazabicyclo[2.2.1]heptan-2-yl)-6-cyclopropyl-7-(6-fluoro-5-methyl-1H-indazol-4-yl)-2-((S)-2-methoxypropoxy)quinazolin-8-yl)oxy)methyl)-2-methoxyphenyl)-1H-1,2,3-triazol-1-yl)-3-methylbutanoyl)-N—((R)-1-(4-(1-ethyl-1H-pyrazol-5-yl)phenyl)-2-hydroxyethyl)-4-hydroxypyrrolidine-2-carboxamide] | 10 to 100 nM | 10 to 100 nM | –
CCn1nccc1-c1ccc([C@H](CO)NC(=O)[C@@H]2C[C@@H](O)CN2C(=O)[C@H](C(C)C)n2cc(-c3ccc(COc4c(-c5c(C)c(F)cc6[nH]ncc56)c(C5CC5)cc5c(N6CCC=CCC6)nc(OC[C@H](C)OC)nc45)cc3)nn2)cc1 [Example 158, (2S,4R)-1-((2S)-2-(4-(4-(((6-cyclopropyl-7-(6-fluoro-5-methyl-1H-indazol-4-yl)-2-((S)-2-methoxypropoxy)-4-(2,3,6,7-tetrahydro-1H-azepin-1-yl)quinazolin-8-yl)oxy)methyl)phenyl)-1H-1,2,3-triazol-1-yl)-3-methylbutanoyl)-N—((R)-1-(4-(1-ethyl-1H-pyrazol-5-yl)phenyl)-2-hydroxyethyl)-4-hydroxypyrrolidine-2-carboxamide] | 10 to 100 nM | 10 to 100 nM | –
CCn1nccc1-c1ccc([C@H](CO)NC(=O)[C@@H]2C[C@@H](O)CN2C(=O)[C@H](C(C)C)n2cc(-c3ccc(COc4c(-c5c(C)c(F)cc6[nH]ncc56)c(C5CC5)cc5c(N(C)[C@H]6[C@@H]7CN[C@H]6C7)nc(OC[C@H](C)OC)nc45)cc3)nn2)cc1 [Example 197, (2S,4R)-1-((2S)-2-(4-(4-(((4-(((1S,4S,5S)-2-azabicyclo[2.1.1]hexan-5-yl)(methyl)amino)-6-cyclopropyl-7-(6-fluoro-5-methyl-1H-indazol-4-yl)-2-((S)-2-methoxypropoxy)quinazolin-8-yl)oxy)methyl)phenyl)-1H-1,2,3-triazol-1-yl)-3-methylbutanoyl)-N—((R)-1-(4-(1-ethyl-1H-pyrazol-5-yl)phenyl)-2-hydroxyethyl)-4-hydroxypyrrolidine-2-carboxamide] | < 10 nM | < 10 nM | –
CO[C@@H](C)COc1nc(N(C)[C@H]2CCNC2)c2cc(C3CC3)c(-c3c(C)c(F)cc4[nH]ncc34)c(OCc3ccc(-c4cn([C@H](C(=O)N5C[C@H](O)C[C@H]5C(=O)N[C@H](c5ccc(-c6scnc6C)cc5)[C@H](C)O)C(C)C)nn4)cc3)c2n1 [Example 143, (2S,4R)-1-((2S)-2-(4-(4-(((6-cyclopropyl-7-(6-fluoro-5-methyl-1H-indazol-4-yl)-2-((S)-2-methoxypropoxy)-4-(methyl((S)-pyrrolidin-3-yl)amino)quinazolin-8-yl)oxy)methyl)phenyl)-1H-1,2,3-triazol-1-yl)-3-methylbutanoyl)-4-hydroxy-N-((1R,2S)-2-hydroxy-1-(4-(4-methylthiazol-5-yl)phenyl)propyl)pyrrolidine-2-carboxamide] | – | < 10 nM | < 10 nM

Results, then the molecule that gave them:

IC50 (AsPC-1 cells; Homo sapiens, ASPC1, 144 h) | DC50 (KRAS (G12D)) | IC50 (AsPC-1 cells) | SMILES
< 10 nM | < 10 nM | – | CCn1nccc1-c1ccc([C@@H](NC(=O)[C@@H]2C[C@@H](O)CN2C(=O)[C@H](C(C)C)n2cc(-c3ccc(COc4c(-c5c(C)c(F)cc6[nH]ncc56)c(C5CC5)cc5c(N6C[C@@H]7C[C@H]6CN7)nc(O[C@H]6CC[C@H](OC)CC6)nc45)cc3)nn2)[C@H](C)O)cc1 [Example 121, (2S,4R)-1-((2S)-2-(4-(4-(((4-((1S,4S)-2,5-diazabicyclo[2.2.1]heptan-2-yl)-6-cyclopropyl-7-(6-fluoro-5-methyl-1H-indazol-4-yl)-2-(((1r,4S)-4-methoxycyclohexyl)oxy)quinazolin-8-yl)oxy)methyl)phenyl)-1H-1,2,3-triazol-1-yl)-3-methylbutanoyl)-N-((1R,2S)-1-(4-(1-ethyl-1H-pyrazol-5-yl)phenyl)-2-hydroxypropyl)-4-hydroxypyrrolidine-2-carboxamide]
< 10 nM | < 10 nM | – | CO[C@@H](C)COc1nc(N2C[C@@H]3C[C@H]2CN3)c2cc(C3CC3)c(-c3c(C)c(F)cc4[nH]ncc34)c(OCc3ccc(-c4cn([C@H](C(=O)N5C[C@H](O)C[C@H]5C(=O)N[C@H](c5ccc(-c6scnc6C)cc5)[C@H](C)O)C(C)C)nn4)cc3)c2n1 [Example 82, (2S,4R)-1-((2S)-2-(4-(4-(((4-((1S,4S)-2,5-diazabicyclo[2.2.1]heptan-2-yl)-6-cyclopropyl-7-(6-fluoro-5-methyl-1H-indazol-4-yl)-2-((S)-2-methoxypropoxy)quinazolin-8-yl)oxy)methyl)phenyl)-1H-1,2,3-triazol-1-yl)-3-methylbutanoyl)-4-hydroxy-N-((1R,2S)-2-hydroxy-1-(4-(4-methylthiazol-5-yl)phenyl)propyl)pyrrolidine-2-carboxamide]
< 10 nM | < 10 nM | – | CCn1nccc1-c1ccc([C@H](CO)NC(=O)[C@@H]2C[C@@H](O)CN2C(=O)[C@H](C(C)C)n2cc(-c3ccc(COc4c(-c5c(C)c(F)cc6[nH]ncc56)c(C5CC5)cc5c(N6C[C@@H]7C[C@H]6CN7)nc(OCC(OC)C(F)(F)F)nc45)cc3)nn2)cc1 (stereo partly drawn) [Example 48, (2S,4R)-1-((2S)-2-(4-(4-(((4-((1S,4S)-2,5-diazabicyclo[2.2.1]heptan-2-yl)-6-cyclopropyl-7-(6-fluoro-5-methyl-1H-indazol-4-yl)-2-(3,3,3-trifluoro-2-methoxypropoxy)quinazolin-8-yl)oxy)methyl)phenyl)-1H-1,2,3-triazol-1-yl)-3-methylbutanoyl)-N—((R)-1-(4-(1-ethyl-1H-pyrazol-5-yl)phenyl)-2-hydroxyethyl)-4-hydroxypyrrolidine-2-carboxamide]
< 10 nM | < 10 nM | – | CCn1nccc1-c1ccc([C@@H](NC(=O)[C@@H]2C[C@@H](O)CN2C(=O)[C@H](C(C)C)n2cc(-c3ccc(COc4c(-c5c(C)c(F)cc6[nH]ncc56)c(C5CC5)cc5c(N6C[C@@H]7C[C@H]6CN7)nc(O[C@H]6CC[C@H](OC)C6)nc45)cc3)nn2)[C@H](C)O)cc1 [Example 151, (2S,4R)-1-((2S)-2-(4-(4-(((4-((1S,4S)-2,5-diazabicyclo[2.2.1]heptan-2-yl)-6-cyclopropyl-7-(6-fluoro-5-methyl-1H-indazol-4-yl)-2-(((1S,3S)-3-methoxycyclopentyl)oxy)quinazolin-8-yl)oxy)methyl)phenyl)-1H-1,2,3-triazol-1-yl)-3-methylbutanoyl)-N-((1R,2S)-1-(4-(1-ethyl-1H-pyrazol-5-yl)phenyl)-2-hydroxypropyl)-4-hydroxypyrrolidine-2-carboxamide]
< 10 nM | < 10 nM | – | CCn1cc2c(C#C[C@H](CO)NC(=O)[C@@H]3C[C@@H](O)CN3C(=O)[C@H](C(C)C)n3cc(-c4ccc(COc5c(-c6c(C)c(F)cc7[nH]ncc67)c(C6CC6)cc6c(N7C[C@@H]8C[C@H]7CN8)nc(OC[C@H](C)OC)nc56)cc4)nn3)cccc2n1 [Example 162, (2S,4R)-1-((2S)-2-(4-(4-(((4-((1S,4S)-2,5-diazabicyclo[2.2.1]heptan-2-yl)-6-cyclopropyl-7-(6-fluoro-5-methyl-1H-indazol-4-yl)-2-((S)-2-methoxypropoxy)quinazolin-8-yl)oxy)methyl)phenyl)-1H-1,2,3-triazol-1-yl)-3-methylbutanoyl)-N—((R)-4-(2-ethyl-2H-indazol-4-yl)-1-hydroxybut-3-yn-2-yl)-4-hydroxypyrrolidine-2-carboxamide]

— patent US20260295053A1, “COMPOUNDS FOR DEGRADATION AND INHIBITION OF KRAS (G12D) PROTEIN” (Shenzhen Ionova Life Science Co., Ltd., priority 2023, published 2026)
